What all share (format): functional, cell-based
The test system of one test is HCT-116. The test is described as follows: Antiproliferative activity against human HCT116 cells assessed as reduction in cell viability by Alamar blue assay. In general terms: Resazurin is reduced to fluorescent resorufin, in cell work by metabolically active cells.
For the next test, the system named is HeLa. The test is described as follows: Antiproliferative activity against human HeLa cells assessed as reduction in cell viability by Alamar blue assay.
Another test has as its system SF-295. Kind of test: Antiproliferative activity against human SF295 cells assessed as reduction in cell viability by Alamar blue assay.
The subject of another test is MCF7. The test is described as follows: Antiproliferative activity against human MCF7 cells assessed as reduction in cell viability by Alamar blue assay.
Another test concerns MDA-MB-231. Kind of test: Antiproliferative activity against human MDA-MB-231 cells assessed as reduction in cell viability by Alamar blue assay.

One may read the IC50 as the concentration that inhibits the measured activity by half. Take `CC(=O)N[C@H](C)[C@@H](O)[C@@H](C)[C@@H]1OC(=O)/C=C/C=C(C)\C=C\[C@]2(C)CCC=C[C@@H]2/C=C(C)/C=C/[C@H]1C`: the IC50 in the test with HCT-116 was determined as 94 nM; with HeLa, 75.4 nM; with SF-295, 63.5 nM.

In the case of `CC(=O)N[C@H](C)[C@@H](O)[C@@H](C)[C@@H]1NC(=O)/C=C/C=C(C)\C=C\[C@]2(C)CCC=C[C@@H]2/C=C(C)/C=C/[C@H]1C`, the half-inhibitory concentration (IC50) with MCF7 is 448 nM; in the test on HCT-116, 746 nM; with HeLa, 597 nM; with MDA-MB-231 it was 584 nM; with SF-295 it was 716 nM.

The values are drawn from ChEMBL document CHEMBL4428094, “Insights into the structure-activity relationship of the anticancer compound ZJ-101, a derivative of marine natural product superstolide A: A role played by the lactone moiety” (Bioorg Med Chem Lett, 2016).
